Assay results reported in patent US20250197382A1, “KIF18A INHIBITOR” (WIGEN BIOMEDICINE TECHNOLOGY (SHANGHAI) CO., LTD., priority 2022, published 2025).
pIC50: −log10 of the molar value.

Biological target: Recombinant human KIF18A (1-467His-tagged) protein (Homo sapiens (Human), UniProt Q8NI77)
Test: KIF18A enzyme assay (microtubule-stimulated ATPase activity, ADP-Glo)
Assay type: biochemical
Conditions: 30 nM KIF18A, ATP 75 μM, read-out: inhibitory activity against KIF18A IC50
In short: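 Baculovirus-expressed human KIF18A (1-467, His-tagged; 30 nM) preincubated 15 min at room temperature with compound (22-point 2-fold series) in pH 7.5 Tris buffer containing 30 μg/mL pig microtubules and 1 μM paclitaxel.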

Sequence of Recombinant human KIF18A (1-467His-tagged) protein (Q8NI77 1-467): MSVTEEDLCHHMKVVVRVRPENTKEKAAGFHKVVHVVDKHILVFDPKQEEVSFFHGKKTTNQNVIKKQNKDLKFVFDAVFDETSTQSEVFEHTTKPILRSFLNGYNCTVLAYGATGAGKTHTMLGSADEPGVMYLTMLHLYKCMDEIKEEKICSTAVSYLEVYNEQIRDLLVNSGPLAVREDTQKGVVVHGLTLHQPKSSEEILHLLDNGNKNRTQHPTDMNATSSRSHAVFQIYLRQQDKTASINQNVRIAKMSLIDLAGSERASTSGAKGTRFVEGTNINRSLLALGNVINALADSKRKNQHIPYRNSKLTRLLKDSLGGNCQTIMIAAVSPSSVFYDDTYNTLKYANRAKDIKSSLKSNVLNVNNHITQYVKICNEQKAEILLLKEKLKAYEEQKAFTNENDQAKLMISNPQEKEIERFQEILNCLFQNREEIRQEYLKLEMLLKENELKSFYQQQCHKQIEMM
Sequence of Recombinant human KIF18A (1-467His-tagged) protein (P02550 whole entry partner): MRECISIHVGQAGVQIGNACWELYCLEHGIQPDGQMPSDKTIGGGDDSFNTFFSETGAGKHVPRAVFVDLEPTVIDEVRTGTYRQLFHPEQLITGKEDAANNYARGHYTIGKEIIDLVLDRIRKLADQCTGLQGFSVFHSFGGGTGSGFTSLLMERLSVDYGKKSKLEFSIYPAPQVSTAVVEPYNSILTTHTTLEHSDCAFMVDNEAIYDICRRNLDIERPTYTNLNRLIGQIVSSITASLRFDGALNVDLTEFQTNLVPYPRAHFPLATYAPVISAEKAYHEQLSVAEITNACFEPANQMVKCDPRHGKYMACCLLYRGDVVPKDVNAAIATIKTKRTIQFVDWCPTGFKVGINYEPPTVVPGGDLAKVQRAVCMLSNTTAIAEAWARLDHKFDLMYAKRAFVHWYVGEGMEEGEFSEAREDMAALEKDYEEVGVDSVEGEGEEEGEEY
Sequence of Recombinant human KIF18A (1-467His-tagged) protein (P02554 whole entry partner): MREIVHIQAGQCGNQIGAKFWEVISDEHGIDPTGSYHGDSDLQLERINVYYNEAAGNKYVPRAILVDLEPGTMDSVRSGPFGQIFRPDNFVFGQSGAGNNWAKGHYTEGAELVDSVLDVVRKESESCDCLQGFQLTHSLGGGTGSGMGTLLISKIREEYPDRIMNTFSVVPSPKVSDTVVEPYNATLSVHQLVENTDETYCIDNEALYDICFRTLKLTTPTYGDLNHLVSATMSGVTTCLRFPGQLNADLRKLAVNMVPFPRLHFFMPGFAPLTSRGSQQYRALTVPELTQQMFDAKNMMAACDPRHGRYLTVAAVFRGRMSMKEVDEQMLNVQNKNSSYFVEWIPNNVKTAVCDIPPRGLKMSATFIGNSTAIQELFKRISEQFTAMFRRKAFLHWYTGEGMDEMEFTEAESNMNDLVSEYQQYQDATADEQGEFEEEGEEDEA

pIC50, ≥ 7.00:
C[C@H]1CN(c2nc(C(=O)Nc3ccc(NS(=O)(=O)CCO)cc3N3CCC4(CC3)CC4)cc3c2N(C)CC3)CCO1 [Compound 355]
CN1CCc2cc(C(=O)Nc3ccc(NS(=O)(=O)CCO)cc3N3CCC4(CC3)CC4)nc(N3CC(F)(F)C3)c21 [Compound 356]
CN1CCc2cc(C(=O)Nc3ccc(NS(=O)(=O)CCO)cc3N3CCC4(CC3)CC4)nc(OCCC(F)(F)F)c21 [Compound 357]
CN1CCc2cc(C(=O)Nc3ccc(NS(=O)(=O)CCO)cc3C3CCC4(CC3)CC4)nc(N3CCC4(CC4)C3)c21 [Compound 358]
CN1CCc2cc(C(=O)Nc3ccc(NS(=O)(=O)CCO)cc3N3CCC4(CC3)CC4)nc(OC3CCC3)c21 [Compound 359]
CN1CCc2cc(C(=O)Nc3ccc(NS(=O)(=O)CCO)cc3N3CCC4(CC3)CC4)nc(N3CCC(C)(F)C3)c21 (centres unmarked) [Compound 360]
CN1CCc2cc(C(=O)Nc3ccc(NS(=O)(=O)CCO)cc3N3CCC4(CC3)CC4)nc(N3CCC(F)CC3)c21 [Compound 361]
CN1CCc2cc(C(=O)Nc3ccc(NS(=O)(=O)CCO)cc3N3CCC4(CC3)CC4)nc(N3CC4CC4C3)c21 (centres unmarked) [Compound 362]
CN1CCc2cc(C(=O)Nc3ccc(NS(=O)(=O)CCO)cc3N3CCC4(CC3)CC4)nc(NC(C)(C)CO)c21 [Compound 363]
CN1CCc2cc(C(=O)Nc3ccc(NS(=O)(=O)CCO)cc3N3CCC4(CC3)CC4)nc(N3CCOCC3)c21 [Compound 364]
C[C@@H](CO)S(=O)(=O)Nc1ccc(NC(=O)c2cc3c(c(N4CCC(F)(F)CC4)n2)N(C)CC3)c(N2CCC3(CC2)CC3)c1 [Compound 365]
C[C@H](CO)S(=O)(=O)Nc1ccc(NC(=O)c2cc3c(c(N4CCC(F)(F)CC4)n2)N(C)CC3)c(N2CCC3(CC2)CC3)c1 [Compound 366]
C[C@@H]1CN(c2nc(C(=O)Nc3ccc(NS(=O)(=O)[C@@H](C)CO)cc3N3CCC4(CC3)CC4)cc3c2N(C)CC3)CCO1 [Compound 367]
C[C@@H]1CN(c2nc(C(=O)Nc3ccc(NS(=O)(=O)[C@H](C)CO)cc3N3CCC4(CC3)CC4)cc3c2N(C)CC3)CCO1 [Compound 368]
CN1CCc2cc(C(=O)Nc3ccc(S(=O)(=O)NCCO)cc3N3CCC4(CC3)CC4)nc(N3CCC(F)(F)CC3)c21 [Compound 369]
C[C@@H]1CN(c2nc(C(=O)Nc3ccc(S(=O)(=O)NCCO)cc3N3CCC4(CC3)CC4)cc3c2N(C)CC3)CCO1 [Compound 370]
C[C@H]1CN(c2nc(C(=O)Nc3ccc(S(=O)(=O)NCCO)cc3N3CCC4(CC3)CC4)cc3c2N(C)CC3)CCO1 [Compound 371]
CN1CCc2cc(C(=O)Nc3ccc(S(=O)(=O)NCCO)cc3N3CCC4(CC3)CC4)nc(N3CC(F)(F)C3)c21 [Compound 372]
CN1CCc2cc(C(=O)Nc3ccc(S(=O)(=O)NCCO)cc3N3CCC4(CC3)CC4)nc(OCCC(F)(F)F)c21 [Compound 373]
CN1CCc2cc(C(=O)Nc3ccc(S(=O)(=O)NCCO)cc3N3CCC4(CC3)CC4)nc(N3CCC4(CC4)C3)c21 [Compound 374]
CN1CCc2cc(C(=O)Nc3ccc(S(=O)(=O)NCCO)cc3N3CCC4(CC3)CC4)nc(OC3CCC3)c21 [Compound 375]
CN1CCc2cc(C(=O)Nc3ccc(S(=O)(=O)NCCO)cc3N3CCC4(CC3)CC4)nc(N3CCC(C)(F)C3)c21 (centres unmarked) [Compound 376]
CN1CCc2cc(C(=O)Nc3ccc(S(=O)(=O)NCCO)cc3N3CCC4(CC3)CC4)nc(N3CCC(F)CC3)c21 [Compound 377]
CN1CCc2cc(C(=O)Nc3ccc(S(=O)(=O)NCCO)cc3N3CCC4(CC3)CC4)nc(N3CC4CC4C3)c21 (centres unmarked) [Compound 378]
CN1CCc2cc(C(=O)Nc3ccc(S(=O)(=O)NCCO)cc3N3CCC4(CC3)CC4)nc(NC(C)(C)CO)c21 [Compound 379]
CN1CCc2cc(C(=O)Nc3ccc(S(=O)(=O)NCCO)cc3N3CCC4(CC3)CC4)nc(N3CCOCC3)c21 [Compound 380]
C[C@@H](CO)NS(=O)(=O)c1ccc(NC(=O)c2cc3c(c(N4CCC(F)(F)CC4)n2)N(C)CC3)c(N2CCC3(CC2)CC3)c1 [Compound 381]
C[C@H](CO)NS(=O)(=O)c1ccc(NC(=O)c2cc3c(c(N4CCC(F)(F)CC4)n2)N(C)CC3)c(N2CCC3(CC2)CC3)c1 [Compound 382]
C[C@@H]1CN(c2nc(C(=O)Nc3ccc(S(=O)(=O)N[C@@H](C)CO)cc3N3CCC4(CC3)CC4)cc3c2N(C)CC3)CCO1 [Compound 383]
C[C@H](CO)NS(=O)(=O)c1ccc(NC(=O)c2cc3c(c(N4CCO[C@H](C)C4)n2)N(C)CC3)c(N2CCC3(CC2)CC3)c1 [Compound 384]
C[C@@H]1CN(c2cc(NC(=O)c3ccc(NS(=O)(=O)CCO)cc3N3CCC4(CC3)CC4)cc3ccn(C)c23)CCO1 [Compound 386]
C[C@H]1CN(c2cc(NC(=O)c3ccc(NS(=O)(=O)CCO)cc3N3CCC4(CC3)CC4)cc3ccn(C)c23)CCO1 [Compound 387]
Cn1ccc2cc(NC(=O)c3ccc(NS(=O)(=O)CCO)cc3N3CCC4(CC3)CC4)cc(N3CC(F)(F)C3)c21 [Compound 388]
Cn1ccc2cc(NC(=O)c3ccc(NS(=O)(=O)CCO)cc3N3CCC4(CC3)CC4)cc(OCCC(F)(F)F)c21 [Compound 389]
Cn1ccc2cc(NC(=O)c3ccc(NS(=O)(=O)CCO)cc3N3CCC4(CC3)CC4)cc(N3CCC4(CC4)C3)c21 [Compound 390]
Cn1ccc2cc(NC(=O)c3ccc(NS(=O)(=O)CCO)cc3N3CCC4(CC3)CC4)cc(OC3CCC3)c21 [Compound 391]
Cn1ccc2cc(NC(=O)c3ccc(NS(=O)(=O)CCO)cc3N3CCC4(CC3)CC4)cc(N3CCC(C)(F)C3)c21 (centres unmarked) [Compound 392]
Cn1ccc2cc(NC(=O)c3ccc(NS(=O)(=O)CCO)cc3N3CCC4(CC3)CC4)cc(N3CCC(F)CC3)c21 [Compound 393]
Cn1ccc2cc(NC(=O)c3ccc(NS(=O)(=O)CCO)cc3N3CCC4(CC3)CC4)cc(N3CC4CC4C3)c21 (centres unmarked) [Compound 394]
Cn1ccc2cc(NC(=O)c3ccc(NS(=O)(=O)CCO)cc3N3CCC4(CC3)CC4)cc(NC(C)(C)CO)c21 [Compound 395]
Cn1ccc2cc(NC(=O)c3ccc(NS(=O)(=O)CCO)cc3N3CCC4(CC3)CC4)cc(N3CCOCC3)c21 [Compound 396]
C[C@@H](CO)S(=O)(=O)Nc1ccc(C(=O)Nc2cc(N3CCC(F)(F)CC3)c3c(ccn3C)c2)c(N2CCC3(CC2)CC3)c1 [Compound 397]
C[C@H](CO)S(=O)(=O)Nc1ccc(C(=O)Nc2cc(N3CCC(F)(F)CC3)c3c(ccn3C)c2)c(N2CCC3(CC2)CC3)c1 [Compound 398]
C[C@@H]1CN(c2cc(NC(=O)c3ccc(NS(=O)(=O)[C@@H](C)CO)cc3N3CCC4(CC3)CC4)cc3ccn(C)c23)CCO1 [Compound 399]
C[C@@H]1CN(c2cc(NC(=O)c3ccc(NS(=O)(=O)[C@H](C)CO)cc3N3CCC4(CC3)CC4)cc3ccn(C)c23)CCO1 [Compound 400]
Cn1ccc2cc(NC(=O)c3ccc(S(=O)(=O)NCCO)cc3N3CCC4(CC3)CC4)cc(N3CCC(F)(F)CC3)c21 [Compound 401]
C[C@@H]1CN(c2cc(NC(=O)c3ccc(S(=O)(=O)NCCO)cc3N3CCC4(CC3)CC4)cc3ccn(C)c23)CCO1 [Compound 402]
C[C@H]1CN(c2cc(NC(=O)c3ccc(S(=O)(=O)NCCO)cc3N3CCC4(CC3)CC4)cc3ccn(C)c23)CCO1 [Compound 403]
Cn1ccc2cc(NC(=O)c3ccc(S(=O)(=O)NCCO)cc3N3CCC4(CC3)CC4)cc(N3CC(F)(F)C3)c21 [Compound 404]
Cn1ccc2cc(NC(=O)c3ccc(S(=O)(=O)NCCO)cc3N3CCC4(CC3)CC4)cc(OCCC(F)(F)F)c21 [Compound 405]
Cn1ccc2cc(NC(=O)c3ccc(S(=O)(=O)NCCO)cc3N3CCC4(CC3)CC4)cc(N3CCC4(CC4)C3)c21 [Compound 406]
Cn1ccc2cc(NC(=O)c3ccc(S(=O)(=O)NCCO)cc3N3CCC4(CC3)CC4)cc(OC3CCC3)c21 [Compound 407]
Cn1ccc2cc(NC(=O)c3ccc(S(=O)(=O)NCCO)cc3N3CCC4(CC3)CC4)cc(N3CCC(C)(F)C3)c21 (centres unmarked) [Compound 408]
Cn1ccc2cc(NC(=O)c3ccc(S(=O)(=O)NCCO)cc3N3CCC4(CC3)CC4)cc(N3CCC(F)CC3)c21 [Compound 409]
Cn1ccc2cc(NC(=O)c3ccc(S(=O)(=O)NCCO)cc3N3CCC4(CC3)CC4)cc(N3CC4CC4C3)c21 (centres unmarked) [Compound 410]
Cn1ccc2cc(NC(=O)c3ccc(S(=O)(=O)NCCO)cc3N3CCC4(CC3)CC4)cc(NC(C)(C)CO)c21 [Compound 411]
Cn1ccc2cc(NC(=O)c3ccc(S(=O)(=O)NCCO)cc3N3CCC4(CC3)CC4)cc(N3CCOCC3)c21 [Compound 412]
C[C@@H](CO)NS(=O)(=O)c1ccc(C(=O)Nc2cc(N3CCC(F)(F)CC3)c3c(ccn3C)c2)c(N2CCC3(CC2)CC3)c1 [Compound 413]
C[C@H](CO)NS(=O)(=O)c1ccc(C(=O)Nc2cc(N3CCC(F)(F)CC3)c3c(ccn3C)c2)c(N2CCC3(CC2)CC3)c1 [Compound 414]
C[C@@H]1CN(c2cc(NC(=O)c3ccc(S(=O)(=O)N[C@@H](C)CO)cc3N3CCC4(CC3)CC4)cc3ccn(C)c23)CCO1 [Compound 415]
C[C@H](CO)NS(=O)(=O)c1ccc(C(=O)Nc2cc(N3CCO[C@H](C)C3)c3c(ccn3C)c2)c(N2CCC3(CC2)CC3)c1 [Compound 416]
Cn1ccc2cc(C(=O)Nc3ccc(NS(=O)(=O)CCO)cc3N3CCC4(CC3)CC4)cc(N3CCC(F)(F)CC3)c21 [Compound 417]
